# Data published in PMC9358002, “Synthesis and Discovery of Ligustrazine–Heterocycle Derivatives as Antitumor Agents” (Frontiers in Chemistry, 2022).
# Like-named read-outs stand apart in the source and are kept apart here.
# Assays:
# Assay type in all cases: cell-based
# [1] = test system: human breast cancer MCF-7; assay: MTT antiproliferative assay, MCF-7; settings: 0–50 μM, read-out: Antiproliferative activity IC50 ± SEM, MCF-7
# Experimental: (§1) The in vitro antiproliferative activity of 33 TMPH compounds was evaluated by MTT assay ([Medica et al., 2022]). Five types of TNBC-related cell lines (human breast cancer MCF-7 and MDA-MB-231, mouse breast cancer 4T1, mouse fibroblast L929, and human umbilical vein endothelial HUVEC cell lines) were used. The cell lines were obtained from the Shanghai Institute of Biochemistry and Cell Biology of the Chinese Academy of Sciences (Shanghai, China). The cell lines were cultured in DMEM supplemented with 1% penicillin–streptomycin solution (100×) and 10% FBS at 37°C under a humid atmosphere containing 5% CO2. After cell passage, cryopreservation, and resuscitation, the growth-inhibitory effects against the five cell lines were determined by MTT assay. The 33 TMPH compounds and the reference control drug cisplatin were dissolved in 0.1% DMSO solution. The cell lines were maintained in 96-well plates and subjected to each test compound (0–50 μM) at 37°C for 48 h. After treatment with 1 mg/ml MTT solution for 4 h, the formazan crystals were dissolved in each well. A microplate reader (Varioskan Flash 3001, Thermo Scientific) was used to determine the cell viability at 490 nm, and each experiment was repeated four times. The collected data were expressed as the mean ± SEM. The inhibitory concentration of the 34 compounds at 50% (IC50) was calculated via concentration–inhibition relationship regression by SPSS software.
# [2] = test system: human breast cancer MDA-MB-231; assay: MTT antiproliferative assay, MDA-MB-231; settings: for IC50: MTT, 48 h, 0–50 μM, read-out: Antiproliferative activity IC50 ± SEM, MDA-MB-231; for SI, selectivity index: SI = IC50 (L929)/IC50 (MDA-MB-231)
# Experimental: as §1
# mouse breast cancer 4T1 = assay: MTT antiproliferative assay, 4T1; settings: 48 h, 0–50 μM, read-out: Antiproliferative activity IC50 ± SEM, 4T1
# Experimental: as §1
# mouse fibroblast L929 = assay: MTT antiproliferative assay, L929; settings: 0–50 μM, read-out: Antiproliferative activity IC50 ± SEM, L929
# Experimental: as §1
# [3] = test system: human umbilical vein endothelial HUVEC; assay: MTT antiproliferative assay, HUVEC; settings: 48 h, 0–50 μM, read-out: Antiproliferative activity IC50 ± SEM, HUVEC
# Experimental: as §1
# [4] = test system: MCF-7, MDA-MB-231, 4T1, L929 and HUVEC cell lines; assay: MTT antiproliferative assay, statements over all five tested cell lines; settings: range over all five tested cell lines, read-out: IC50 values ranging over the tested cell lines
# Experimental: as §1
SMILES,"IC50 ([1]; Homo sapiens, MCF7, 48 h) [µM]","IC50 ([2]; Homo sapiens, MDA-MB-231) [µM]","SI, selectivity index [2]",IC50 (mouse breast cancer 4T1; Mus musculus) [µM],"IC50 (mouse fibroblast L929; Mus musculus, L929, 48 h) [µM]","IC50 ([3]; Homo sapiens, HUVEC) [µM]",IC50 [4] [µM],IC50 ([1]; 48 h) [µM],IC50 [2] [µM],IC50 (mouse breast cancer 4T1) [µM],IC50 (mouse fibroblast L929; 48 h) [µM],IC50 [3] [µM]
Cc1nc(C)c(C(=O)NCCCCCCCCNC(=O)C=Cc2ccccc2)nc1C [8–1],10.99 ± 0.06,2.52 ± 0.08,6.58,> 20,16.58 ± 0.12,> 20,–,–,–,–,–,–
Cc1nc(C)c(C(=O)NCCCCCCCCNC(=O)c2cc3ccccc3o2)nc1C [8–2],6.62 ± 0.15,6.1 ± 0.16,>3.28,19.86 ± 0.16,> 20,4.27 ± 0.07,–,–,–,–,–,–
Cc1nc(C)c(C(=O)NCCCCCCCCNC(=O)c2cc3ccccc3s2)nc1C [8–3],4.15 ± 0.02,3.39 ± 0.12,1.22,19.5 ± 0.45,4.12 ± 0.32,9.78 ± 0.05,1.61 to 19.5,–,–,–,–,–
Cc1nc(C)c(C(=O)NCCCCCCCCNC(=O)c2cc3ccccc3[nH]2)nc1C [8–4],6.21 ± 0.14,5.77 ± 0.09,1.85,> 20,10.7 ± 0.43,> 20,–,–,–,–,–,–
Cc1nc(C)c(C(=O)NCCCCCCCCNC(=O)c2cnc3ccccc3c2)nc1C [8–5],4.96 ± 0.25,3.44 ± 0.16,1.01,2.07 ± 0.04,3.49 ± 0.28,> 20,–,–,–,–,–,–
Cc1nc(C)c(C(=O)NCCCCCCCCNC(=O)c2ccc3ncccc3c2)nc1C [8–6],> 20,1.02 ± 0.15,>19.61,1.94 ± 0.03,> 20,> 20,–,–,–,–,–,–
Cc1nc(C)c(C(=O)NCCCCCCCCNC(=O)c2ccc3cc[nH]c3c2)nc1C [8–9],> 20,8.45 ± 0.14,>2.37,3.74 ± 0.19,> 20,> 20,–,–,–,–,–,–
Cc1nc(C)c(C(=O)NCCCCCCCCNC(=O)C=Cc2ccc(Cl)cc2)nc1C [8–10],2.84 ± 0.21,6.67 ± 0.16,0.82,2.48 ± 0.24,5.48 ± 0.06,4.54 ± 0.01,1.61 to 19.5,–,–,–,–,–
COc1ccc(C=CC(=O)NCCCCCCCCNC(=O)c2nc(C)c(C)nc2C)cc1OC [8–11],> 20,5.05 ± 0.02,>3.96,12 ± 0.46,> 20,10.35 ± 0.03,–,–,–,–,–,–
COc1cc(C=CC(=O)NCCCCCCCCNC(=O)c2nc(C)c(C)nc2C)cc(OC)c1OC [8–12],5.38 ± 0.13,11.2 ± 0.12,>1.78,10.2 ± 0.32,> 20,> 20,–,–,–,–,–,–
Cc1nc(C)c(C(=O)NCCCCCCCCNC(=O)c2ccc3ccccc3c2)nc1C [8–13],> 20,2.44 ± 0.09,6.42,13.7 ± 0.24,15.7 ± 0.36,14.4 ± 0.03,–,–,–,–,–,–
Cc1nc(C)c(C(=O)NCCCCCCCCCCNC(=O)C=Cc2ccccc2)nc1C [10–1],2.61 ± 0.19,1.14 ± 0.08,3.82,2.86 ± 0.18,4.36 ± 0.37,> 20,–,–,–,–,–,–
Cc1nc(C)c(C(=O)NCCCCCCCCCCNC(=O)c2cc3ccccc3o2)nc1C [10–2],4.19 ± 0.15,8.41 ± 0.18,1.39,> 20,11.7 ± 0.81,16.6 ± 0.68,–,–,–,–,–,–
Cc1nc(C)c(C(=O)NCCCCCCCCCCNC(=O)c2cc3ccccc3s2)nc1C [10–3],18.5 ± 1.34,4.16 ± 0.25,1.75,17.6 ± 1.16,7.26 ± 0.16,> 20,–,–,–,–,–,–
Cc1nc(C)c(C(=O)NCCCCCCCCCCNC(=O)c2cc3ccccc3[nH]2)nc1C [10–4],> 20,13 ± 0.27,>1.54,> 20,> 20,> 20,–,–,–,–,–,–
Cc1nc(C)c(C(=O)NCCCCCCCCCCNC(=O)c2cnc3ccccc3c2)nc1C [10–5],8.72 ± 0.49,5.76 ± 0.13,0.90,> 20,5.18 ± 0.27,> 20,–,–,–,–,–,–
Cc1nc(C)c(C(=O)NCCCCCCCCCCNC(=O)c2ccc3ncccc3c2)nc1C [10–6],6.49 ± 0.36,7.76 ± 0.14,1.15,12 ± 0.54,8.91 ± 0.12,10.2 ± 0.86,1.61 to 19.5,–,–,–,–,–
Cc1nc(C)c(C(=O)NCCCCCCCCCCNC(=O)C=Cc2ccc(Cl)cc2)nc1C [10–10],2.93 ± 0.05,2.83 ± 0.09,3.58,> 20,10.1 ± 0.52,11.2 ± 0.38,–,–,–,–,–,–
COc1ccc(C=CC(=O)NCCCCCCCCCCNC(=O)c2nc(C)c(C)nc2C)cc1OC [10–11],3.23 ± 0.03,12.9 ± 1.41,>1.55,> 20,> 20,> 20,–,–,–,–,–,–
COc1cc(C=CC(=O)NCCCCCCCCCCNC(=O)c2nc(C)c(C)nc2C)cc(OC)c1OC [10–12],2.86 ± 0.08,3.41 ± 0.12,>5.87,> 20,> 20,> 20,–,–,–,–,–,–
Cc1nc(C)c(C(=O)NCCCCCCCCCCCCNC(=O)c2cc3ccccc3[nH]2)nc1C [12–4],3.23 ± 0.18,3.52 ± 0.12,>5.68,6.62 ± 0.14,> 20,> 20,–,–,–,–,–,–
COc1ccc(C=CC(=O)NCCCCCCCCCCCCNC(=O)c2nc(C)c(C)nc2C)cc1OC [12–11],1.76 ± 0.02,2.42 ± 0.18,>8.26,2.32 ± 0.14,> 20,> 20,–,–,–,–,–,–
"N.N.[Cl][Pt][Cl] [DDP, cisplatin, reference compound]",–,–,2.64,–,–,–,–,6.25 ± 0.34,3.18 ± 0.06,5.71 ± 0.16,8.38 ± 0.23,7.46 ± 0.45
"Cc1nc(C)c(C)nc1C [TMP, Ligustrazine]",> 20,> 20,–,> 20,> 20,> 20,–,–,–,–,–,–
